Results on 32 compounds are retold here after patent publication US10005767B2, “Compositions and methods for inhibition of the JAK pathway” (Rigel Pharmaceuticals, Inc., priority 2009, dated 2018).

Molecules are shown by their SMILES. Bounds are passed on as bounds.

The subject of one experiment is human primary T-cells, IL-2 stimulated proliferation (JAK-1 and JAK-3 dependent; reported as JAK3 activity). In words: Human primary T-cell proliferation stimulated by IL-2 (Example 3). It is filed as cell-based. Conditions: Homo sapiens, T-cell, tested under conditions described in Example 3 (IL-2 stimulated human primary T-cell proliferation); read-out: ability to inhibit JAK3 activity, IC50 range (Table V). The method in brief: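 Peripheral-blood human T-cells pre-activated via TCR/CD28, IL-2-starved overnight, then cultured 72 h at 37 °C with compound in Yssel's medium containing IL-2 (80 U/mL in cell suspension). Proliferation read as viable-cell ATP by CellTiter-Glo luminescence; reduction versus control taken as JAK pathway inhibition.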
Turning to `COc1ccc(Nc2ncc(C)c(Nc3ccc4oc(=O)[nH]c4c3)n2)cc1OC(F)F` [Compound I-116, N2-(3-(difluoromethoxy)-4-methoxyphenyl)-N4-(benzo[d]oxazol-2(3H)-on-5-yl)-5-methylpyrimidine-2,4-diamine], the IC50 (as a rule, the point on the concentration scale where inhibition reaches its midpoint) was under 0.5 µM. Still for that read-out and setting: the result for `COc1cc(C)cc(Nc2ncc(C)c(Nc3cc(C)c4oc(=O)[nH]c4c3)n2)c1` [Compound I-428, 5-(2-(3-methoxy-5-methylphenylamino)-5-methylpyrimidin-4-ylamino)-7-methylbenzo[d]oxazol-2(3H)-one] reads under 0.5 µM; that for `Cc1cnc(Nc2cccc(Br)c2)nc1Nc1ccc2oc(=O)[nH]c2c1` [Compound I-175, 5-[2-(3-Bromo-phenylamino)-5-methyl-pyrimidin-4-ylamino]-3H-benzooxazol-2-one], under 0.5 µM; that for `N#Cc1cccc(Nc2ncc(F)c(Nc3ccc4oc(=O)[nH]c4c3)n2)c1` [Compound I-44, N4-(benzo[d]oxazol-2(3H)-on-5-yl)-N2-(3-cyanophenyl)-5-fluoropyrimidine-2,4-diamine], under 0.5 µM.

As for `Cc1cnc(Nc2ccc(F)cc2)nc1Nc1ccc2oc(=O)[nH]c2c1` [Compound I-470, 5-[2-(4-Fluoro-phenylamino)-5-methyl-pyrimidin-4-ylamino]-3H-benzooxazol-2-one], the IC50 was under 0.5 µM. In the case of `Cc1cnc(Nc2ccc3[nH]ncc3c2)nc1Nc1ccc2oc(=O)[nH]c2c1` [IV-6, N4-(benzo[d]oxazol-2(3H)-on-5-yl)-N2-(1H-indazol-5-yl)-5-methylpyrimidine-2,4-diamine], the IC50 is under 0.5 µM.

With `Cc1cnc(Nc2ccc(NC3CC4CCC(C3)N4C)cc2)nc1Nc1ccc2oc(=O)[nH]c2c1` (centres unmarked) [Compound I-121, N4-(benzo[d]oxazol-2(3H)-on-5-yl)-N2-(4-(8-methyl-8-azabicyclo[3.2.1]octan-3-ylamino)phenyl)-5-methylpyrimidine-2,4-diamine], the IC50 was 0.5 to 5 µM. Same read-out and setting: the result for `Cc1cnc(Nc2ccc(N3C[C@@H]4C[C@H]3CN4C)nc2)nc1Nc1ccc2oc(=O)[nH]c2c1` [II-31, N4-(benzoxazolin-2-on-5-yl)-N2-[2-((1S,4S)-5-methyl-2,5-diazabicyclo[2.2.1]heptan-2-yl)pyridin-5-yl]-5-methylpyrimidine-2,4-diamine] reads under 0.5 µM. Still for that read-out and setting: with `Cc1cnc(Nc2cc(C(C)O)cc(C(F)(F)F)c2)nc1Nc1ccc2oc(=O)[nH]c2c1` (centres unmarked) [Compound I-446, 5-(2-(3-(1-hydroxyethyl)-5-(trifluoromethyl)phenylamino)-5-methylpyrimidin-4-ylamino)benzo[d]oxazol-2(3H)-one] the figure was under 0.5 µM.

Turning to `Cc1cnc(Nc2ccc(NS(C)(=O)=O)nc2)nc1Nc1ccc2oc(=O)n(C)c2c1` [II-79, N-(5-(5-methyl-4-(3-methyl-2-oxo-2,3-dihydrobenzo[d]oxazol-5-ylamino)pyrimidin-2-ylamino)pyridin-2-yl)methanesulfonamide], the IC50 was under 0.5 µM.

Consider `Cc1cnc(Nc2ccc(N3CCN(C)CC3)nc2)nc1Nc1ccc2oc(=O)n(C)c2c1` [II-22, N2-(6-(4-methylpiperazin-1-yl)pyridin-3-yl)-N4-(3-methyl-2-oxo-2,3-dihydrobenzo[d]oxazol-5-yl)-5-methylpyrimidine-2,4-diamine], for which the IC50 was under 0.5 µM. With `Cc1cnc(Nc2ccc(N3CC4CN(C)CC4C3)nc2)nc1Nc1ccc2oc(=O)[nH]c2c1` (centres unmarked) [II-120, 5-methyl-N2-[2-(3-methyl-3,7-diazabicyclo[3.3.0]octan-7-yl)pyridin-5-yl]-N4-(2-oxo-2,3-dihydro-1,3-benzoxazol-5-yl)-2,4-pyrimidinediamine], the 50% inhibitory concentration (IC50) is under 0.5 µM. On the same count and under the same terms, with `Cc1cnc(Nc2cnc(N3CC4CCC(C3)N4)c(C)c2)nc1Nc1ccc2oc(=O)[nH]c2c1` [II-61, 5-(2-(6-(3,8-diaza-bicyclo[3.2.1]octan-3-yl)-5-methylpyridin-3-ylamino)-5-methylpyrimidin-4-ylamino)benzo[d]oxazol-2(3H)-one] the figure was under 0.5 µM. On the same count and under the same terms, with `Cc1ccccc1Nc1ncc(C)c(Nc2ccc3oc(=O)[nH]c3c2)n1` [Compound I-499, 5-(2-(o-toluidino)-5-methylpyrimidin-4-ylamino)benzo[d]oxazol-2(3H)-one] the figure was 0.5 to 5 µM. Still for that read-out and setting: the result for `CC(=O)c1ccc(F)c(Nc2ncc(C)c(Nc3ccc4oc(=O)[nH]c4c3)n2)c1` [Compound I-519, 5-(2-(5-acetyl-2-fluorophenylamino)-5-methylpyrimidin-4-ylamino)benzo[d]oxazol-2(3H)-one] reads under 0.5 µM; that for `Cc1cnc(Nc2cnc(C3NCC4CCCCC43)c(Cl)c2)nc1Nc1ccc2oc(=O)[nH]c2c1` (centres unmarked) [II-122, N2-[3-chloro-2-(octahydroisoindol-1-yl)pyridin-5-yl]-5-methyl-N4-(2-oxo-2,3-dihydro-1,3-benzoxazol-5-yl)-2,4-pyrimidinediamine], under 0.5 µM; that for `Cc1cnc(Nc2ccc(Cl)c(C(F)(F)F)c2)nc1Nc1ccc2oc(=O)[nH]c2c1` [Compound I-153, 5-[2-(4-Chloro-3-trifluoromethyl-phenylamino)-5-methyl-pyrimidin-4-ylamino]-3H-benzooxazol-2-one], under 0.5 µM. Consider `CC(=O)c1ccc(Nc2ncc(C)c(Nc3ccc4oc(=O)[nH]c4c3)n2)cc1` [Compound I-129, 5-[2-(4-Acetyl-phenylamino)-5-methyl-pyrimidin-4-ylamino]-3H-benzooxazol-2-one], for which the IC50 was under 0.5 µM.

As to `Cc1cnc(Nc2ccc3c(c2)CCCC(=O)N3)nc1Nc1ccc2oc(=O)[nH]c2c1` [IV-31, 5-(5-methyl-2-(2-oxo-2,3,4,5-tetrahydro-1H-benzo[b]azepin-7-ylamino)pyrimidin-4-ylamino)benzo[d]oxazol-2(3H)-one], the IC50 is under 0.5 µM. Same read-out and setting: with `Cc1cnc(Nc2ccc3[nH]c(=O)[nH]c3c2)nc1Nc1ccc2oc(=O)[nH]c2c1` [IV-29, 5-(5-methyl-2-(2-oxo-2,3-dihydro-1H-benzo[d]imidazol-5-ylamino)pyrimidin-4-ylamino)benzo[d]oxazol-2(3H)-one] the figure was under 0.5 µM. In the case of `Cc1cnc(Nc2ccc(N3CCN(C(=O)OC(C)(C)C)CC3)nc2)nc1Nc1ccc2oc(=O)[nH]c2c1` [II-5, N4-(benzo[d]oxazol-2(3H)-on-5-yl)-N2-(6-(4-tert-butyloxycarbonylpiperazin-1-yl)pyridin-3-yl)-5-methylpyrimidine-2,4-diamine], the IC50 was under 0.5 µM.

Staying with this experiment, now noted: tested under conditions described in Example 3 (IL-2 stimulated human primary T-cell proliferation); read-out: ability to inhibit JAK3 activity, IC50 range (Table V).
With `Cc1cnc(Nc2ccc(Br)cc2)nc1Nc1ccc2oc(=O)[nH]c2c1` [Compound I-288, N2-(4-bromo)phenyl-5-methyl-N4-(2-oxo-2,3-dihydro-1,3-benzoxazol-5-yl)-2,4-pyrimidinediamine], the IC50 is under 0.5 µM. Still for that read-out and setting: with `COc1cc(Nc2ncc(C)c(Nc3ccc4oc(=O)[nH]c4c3)n2)cc(OC)c1` [Compound I-280, N2-(3,5-dimethoxy)phenyl-5-methyl-N4-(2-oxo-2,3-dihydro-1,3-benzoxazol-5-yl)-2,4-pyrimidinediamine] the figure was under 0.5 µM. As for `Cc1cnc(Nc2cccc(N3CCOCC3)c2)nc1Nc1ccc2c(c1)oc(=O)n2C` [Compound I-49, N4-(3-methylbenzo[d]oxazol-2(3H)-on-6-yl)-N2-((3-morpholinyl)phenyl)-5-methylpyrimidine-2,4-diamine], the IC50 was under 0.5 µM. For the compound `Cc1cnc(Nc2cc(C)c(C)c(C)c2)nc1Nc1ccc2oc(=O)n(COP(=O)(OC(C)(C)C)OC(C)(C)C)c2c1` [Compound I-405, N4-{3-[bis(1,1-dimethylethoxy)]phosphinyloxymethyl-2-oxo-2,3-dihydro-1,3-benzoxazol-5-yl}-N2-(3,4,5-trimethyl)phenyl-5-methyl-2,4-pyrimidinediamine], the IC50 was in the range of 5 to 10 µM. Still for that read-out and setting: the result for `Cc1cnc(Nc2ccc(OC(C)(C)C(N)=O)cc2)nc1Nc1ccc2oc(=O)[nH]c2c1` [Compound I-324, N2-[4-(1-aminocarbonyl-1-methyl)ethoxy]phenyl-5-methyl-N4-(2-oxo-2,3-dihydro-1,3-benzoxazol-5-yl)-2,4-pyrimidinediamine] reads under 0.5 µM.

With `CCCn1c(=O)oc2ccc(Nc3nc(Nc4ccc(NS(C)(=O)=O)cc4)ncc3C)cc21` [Compound I-8, N4-(3-n-propylbenzo[d]oxazol-2(3H)-on-5-yl)-N2-((4-methylsulfonylamino)phenyl)-5-methylpyrimidine-2,4-diamine], the IC50 was under 0.5 µM. Take `Cc1cnc(Nc2ccc(NS(C)(=O)=O)cc2)nc1Nc1ccc2oc(=O)n(C)c2c1` [Compound I-72, N2-((4-methylsulfonylamino)phenyl)-N4-(3-methyl-2-oxo-2,3-dihydrobenzo[d]oxazol-5-yl)-5-methylpyrimidine-2,4-diamine]: the IC50 is under 0.5 µM. Consider `Cc1cnc(Nc2ccc(N(C)S(C)(=O)=O)cc2)nc1Nc1ccc2c(c1)oc(=O)n2C` [Compound I-95, N2-((4-methylsulfonyl-N-methylamino)phenyl)-N4-(3-methyl-2-oxo-2,3-dihydrobenzo[d]oxazol-6-yl)-5-methylpyrimidine-2,4-diamine], for which the IC50 is under 0.5 µM. On to `Cc1ccc(Nc2ncc(C)c(Nc3ccc4c(c3)oc(=O)n4C)n2)cc1NS(C)(=O)=O` [Compound I-83, N2-((3-methylsulfonylamino-4-methyl)phenyl)-N4-(3-methyl-2-oxo-2,3-dihydrobenzo[d]oxazol-6-yl)-5-methylpyrimidine-2,4-diamine], for which the IC50 is under 0.5 µM. Turning to `Cc1cnc(Nc2cccc(S(N)(=O)=O)c2)nc1Nc1ccc2[nH]c(=O)oc2c1` [Compound I-98, N2-((3-aminosulfonyl)phenyl)-N4-(2-oxo-2,3-dihydrobenzo[d]oxazol-6-yl)-5-methylpyrimidine-2,4-diamine], the IC50 is under 0.5 µM. Same read-out and setting: with `Cc1cnc(Nc2cccc(-c3ccncc3)c2)nc1Nc1ccc2oc(=O)[nH]c2c1` [Compound I-289, 5-methyl-N4-(2-oxo-2,3-dihydro-1,3-benzoxazol-5-yl)-N2-[3-(pyridin-4-yl)]phenyl-2,4-pyrimidinediamine] the figure was under 0.5 µM.
